Results from patent US20260297136A1, “PEPTIDES WITH LIPOLYTIC, ANTI-LIPOGENIC, ANTIFIBROTIC AND ANTI-INFLAMMATORY ACTIVITY” (FUNDACIÓ HOSPITAL UNIVERSITARI VALL D'HEBRON - INSTITUT DE …, priority 2023, published 2026).

Assays:
HepG2 cells [1] = assay: Hepatic lipogenesis gene expression in HepG2 cells (24 h), Example 7; format: cell-based, human; conditions: 40 μg/ml, vs vehicle
From the text: FIG. 32. Effect of GP6 and modified peptides on hepatic lipogenesis in HepG2 cells. Each bar within each group represents mRNA levels of a key hepatic lipogenic enzyme, from left to right: Acetyl-CoA Carboxylase (ACC), ATP Citrate Lyase (ACLY) and Fatty Acid Synthase (FAS), and a key transcription factor regulating several lipogenic enzymes such as PPARγ (PPARγ).
(§1) Cell culture reagents were from Life Technologies Inc (Invitrogen SA, Barcelona, Spain). HepG2 hepatoblastoma cells (cat. no. HB-8065; ATCC, LGC Standards SLU, Barcelona, Spain) were maintained in Dulbecco's modified Eagle medium (DMEM) supplemented with 10% fetal bovine serum and antibiotics.
(§2) • HepG2 cells were cultured for 5 day in the absence or presence of 30 mM fructose. Cells cultured in 30 mM fructose were daily treated with vehicle, Telmisartan, Semaglutide or EDL6D. • HepG2 cells were cultured for 24 h in the absence or presence of GP6 (40 μg/ml), GP10 (40 μg/ml), GP11 (40 μg/ml), GP12 (40 μg/ml), GP13 (40 μg/ml) or SHBG (20 nM). • HepG2 cells were cultured in the absence or presence of 30 mM fructose and treated for 2 h with vehicle or GP4 (40 μg/ml), GP6 (40 μg/ml), GP7 (40 μg/ml), GP8 (40 μg/ml), GP9 (40 μg/ml), GP10 (40 μg/ml), GP11 (40 μg/ml), GP12 (40 μg/ml), GP13 (40 μg/ml) or SHBG (20 nM).
(§3) Total RNA was extracted from HepG2 and LX-2 cells using TRIzol reagent (Invitrogen SA). Reverse transcription was performed at 42° C. for 50 minutes using […] of total RNA, 200 U of Superscript II, and an oligo-dT primer and reagents provided by Invitrogen. An aliquot of the reverse transcription product was amplified in a […] reaction using SYBRGreen (Invitrogen SA) with appropriate oligonucleotide primer pairs corresponding to human SHBG, ACC, FAS, ACLY, PPARG, and 18S and mouse ACC, FAS, ACLY, PPARG, Col1A1 and 18S. Results were analyzed using the 7000 Sequence Detection System program (Applied Biosystems, Thermo Fisher Scientific, Barcelona, Spain) (Shez-Lopez et al Endocrinology 2017).

HepG2 cells [2] = assay: Hepatic lipogenic key enzymes in HepG2 cells in the presence of 30 mM fructose (2 h), Example 7; format: cell-based, human; conditions: 40 μg/ml
Procedure: FIG. 34. Effects of different peptides and SHBG in reducing hepatic lipogenic key enzymes in the presence of 30 mM fructose. Each bar within each group represents mRNA levels of a key hepatic lipogenic enzyme, from left to right: Acetyl-CoA Carboxylase (ACC), ATP Citrate Lyase (ACLY) and Fatty Acid Synthase (FAS), and a key transcription factor regulating several lipogenic enzymes such as PPARγ (PPARγ).
as §1, §2, §3

HepG2 cells [3] = assay: Hepatic lipogenesis gene expression (ACC, FAS, ACLY mRNA by RTPCR) in HepG2 cells, Example 2; format: cell-based, human; conditions: 10 μM, 24 h, relative to 18S
Procedure: FIG. 5 Human hepatoblastoma cell line HepG2 was treated with vehicle (DMSO) or 10 μM of GP4, GP7, GP8 or GP9 for 24 h. RNA was extracted and mRNA levels of Acetyl-CoA Carboxylase (ACC), Fatty Acid Synthase (FAS) and ATP-Citrate Lyase (ACLY) relative to 18S were measured by RTPCR.
Cell culture reagents were from Life Technologies Inc (Invitrogen SA, Barcelona, Spain). HepG2 hepatoblastoma cells (cat. no. HB-8065; ATCC, LGC Standards SLU, Barcelona, Spain) were maintained in Dulbecco's modified Eagle medium (DMEM) supplemented with 10% fetal bovine serum and antibiotics. HepG2 cells were treated with vehicle or 10 μM of GP4, GP7, GP8 and GP9 for 24 h. LX-2 human hepatic stellate cells (SCC064) were maintained in DMEM supplemented with 2% fetal bovine serum and antibiotics. For experiments, LX-2 were cultured for 24 h in DMEM 0.2% FBS and treated for 24 h with vehicle or TGFβ1 (20 ng/ml) in the absence or presence of 8 μM of GP4, GP7, GP8 and GP9 for 24 h. At the end of the experiment's cells were harvested for gene expression analysis.
as §3, with “human” for “human SHBG,”, “Col1A1” for “PPARG,”, “(shown in table 7).” for “and mouse ACC, FAS, ACLY, PPARG, Col1A1 and 18S.”, “(Sex Hormone-Binding Globulin Reduction in Metabolic Disorders May Play a Role in NAFLD Development.Saez-Lopez C, Barbosa-Desongles A, Hernandez C, Dyer R A, Innis S M, Simo R, Selva D M. Endocrinology. 2017 Mar. 1; 158(3):545-559. doi: 10.1210/en.2016-1668).” for “(Shez-Lopez et al Endocrinology 2017).”

[4] = system: obesity and fatty liver disease mouse model; assay: Therapeutic effects in an obesity and fatty liver disease mouse model, Example 6; format: in vivo, C57BL6/J male mice; conditions: Telmisartan 5 mg/kg/day in drinking water, 10 weeks
Procedure: C57BL6/J male mice were purchased and kept for quarantine and acclimatization for a period of about 7 days before initiation of every experiment. Mice were housed in clean and sterilized mice cages and maintained in a controlled environment with 22+3° C. temperature, 50+20% humidity, a light/dark cycle of 12 hours each and 15-20 fresh air changes per hour.
For Obesity and NAFLD induction, the animals were fed ad libitum, either with chow diet (150SP-10, Safe Diets) or 45% high-fat diet (TD.190179, Envigo) plus 30% fructose (F0127, Sigma Aldrich) in drinking water for 20 weeks. The therapeutic effect of a daily subcutaneous injection of GP6 (20 mg/kg/day) in this mouse model was assessed for 10 weeks, starting the treatment on week 10 of the experiment until week 20.
A group of control mice (n=10) was fed with control diet and regular drinking water and a group of mice (n=30) obesity and fatty liver disease was induced for 10 weeks. At this point, mice were randomly divided in three groups of n=10, the first group was treated with daily subcutaneous injections of vehicle (water), the second group was treated with Telmisartan (5 mg/kg/day) in the drinking water and a subcutaneous injection of vehicle, and the third group with daily subcutaneous injection of GP6 (20 mg/kg/day) during 10 weeks.
At the end of the experiment mice were sacrificed, serum samples were extracted, tissues were weighted and part was fixed in paraformaldehyde for histology studies and part immediately frozen at −80 C for mRNA and protein expression studies as well as assessment of triglycerides.
The histology studies, AST and ALT measurements, TG measurements, and the RNA analysis were performed as described in Example 4.

Molecule | ACC mRNA levels (HepG2 cells [1]) | ACLY mRNA levels (HepG2 cells [1]) | FAS mRNA levels (HepG2 cells [1]) | PPARγ mRNA levels (HepG2 cells [1]) | fructose-induced expression of ACC (HepG2 cells [2]) | fructose-induced expression of ACLY (HepG2 cells [2]) | fructose-induced expression of FAS (HepG2 cells [2]) | fructose-induced expression of PPARγ (HepG2 cells [2]) | ATP-Citrate Lyase (ACLY) mRNA levels (HepG2 cells [3]) | Acetyl-CoA Carboxylase (ACC) mRNA levels (HepG2 cells [3]) | Fatty Acid Synthase (FAS) mRNA levels (HepG2 cells [3]) | liver triglyceride (TAG) content [4] | liver weight [4] | Total body weight versus control mice ([4]; vs control diet mice) | serum glucose levels ([4]; vs vehicle)
TKTASAFEVRTWDPEGVIFYGDTNPKDDWF [GP11] | reduced the mRNA levels | reduced the mRNA levels | reduced the mRNA levels | reduced the mRNA levels | able to reduce | able to reduce | able to reduce | able to reduce |  |  |  |  |  |  | 
CC[C@@H](C)[C@@H](NC(=O)[C@H](NC(=O)CNC(=O)[C@@H](CCC(=O)O)NC(=O)[C@H]1CCCN1C(=O)[C@@H](CC(=O)O)NC(=O)[C@@H](Cc1c[nH]c2ccccc12)NC(=O)[C@H](N)[C@H](C)O)C(C)C)C(=O)N[C@H](Cc1ccccc1)C(=O)N[C@H](Cc1ccc(O)cc1)C(=O)NCC(=O)N[C@H](CC(=O)O)C(=O)N[C@@H](C(=O)N[C@H](CC(N)=O)C(=O)N1CCC[C@@H]1C(=O)N[C@H](CCCCN)C(=O)N[C@H](CC(=O)O)C(=O)N[C@H](CC(=O)O)C(=O)N[C@H](Cc1c[nH]c2ccccc12)C(=O)N[C@H](Cc1ccccc1)C(=O)O)[C@H](C)O [GP7] |  |  |  |  | able to reduce the expression of ACC and ACLY more effectively than SHBG | able to reduce the expression of ACC and ACLY more effectively than SHBG | had no effect on FAS and PPARγ expression | had no effect on FAS and PPARγ expression | reduced | reduced | increased |  |  |  | 
TKTSASFEVRTWDPEGVIFYADTNPKDDWF [GP13] | able to reduce | no ACLY and PPARγ | able to reduce | no ACLY and PPARγ | able to reduce the expression of ACC and ACLY more effectively than SHBG | able to reduce the expression of ACC and ACLY more effectively than SHBG | had no effect on FAS | increased PPARγ expression |  |  |  |  |  |  | 
CCCc1nc2c(C)cc(-c3nc4ccccc4n3C)cc2n1Cc1ccc(-c2ccccc2C(=O)O)cc1 [Telmisartan, reference compound] |  |  |  |  |  |  |  |  |  |  |  | failed to decrease TAG liver content | did not reduced significantly | significantly increased | did not have any effect
ATKTSASFEVRTWDPEAVIFY [GP10] | reduced the mRNA levels | reduced the mRNA levels | reduced the mRNA levels | reduced the mRNA levels | able to reduce | able to reduce | able to reduce | able to reduce |  |  |  |  |  |  | 
TKTASAFEVRTWDPEGVIFY [GP12] | reduced all key lipogenic genes except FAS | reduced all key lipogenic genes except FAS |  | reduced all key lipogenic genes except FAS | able to reduce | able to reduce | able to reduce | able to reduce |  |  |  |  |  |  | 
